Results on 27 molecules are retold here after patent publication US20250282768A1 (Janssen Pharmaceutica NV, priority 2022, published 2025).

Molecules are shown by their SMILES.

The test system of the assay is p-IKKa levels in L363 (NIK translocated multiple myeloma) cells. Nature of the assay: Assay 2: Effect of compounds on p-IKKa levels in L363 (NIK translocated multiple myeloma) cells. The assay is classed as cell-based. Conditions: Homo sapiens, L-363, 6 h, read-out: Assay 2 IC50 (nM), p-IKKa (Ser 176/180) in BAFF stimulated L363 cells with MG132, 6 h; average if tested more than once. In short, it runs like this: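 L363 cells incubated overnight ± 250 ng/ml BAFF, then 6 h at 37 °C with compound (0.3% DMSO) ± 10 μM MG132. Lysates assayed for p-IKKa (Ser176/180) by AlphaLISA SureFire. IC50 from sigmoidal fit of % inhibition normalized to BAFF/MG132-stimulated and unstimulated controls.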
For the molecule `CCn1cc(Nc2nccc(-c3cccc(-c4cc([C@]5(O)CCN(C)C5=O)on4)n3)n2)cn1` [Example 46, (R)-3-(3-(6-(2-((1-Ethyl-1H-pyrazol-4-yl)amino)pyrimidin-4-yl)pyridin-2-yl)isoxazol-5-yl)-3-hydroxy-1-methylpyrrolidin-2-one], the IC50 was under 50 nM.
Turning to `CN1CC[C@@](O)(c2cc(-c3cccc(-c4ccnc(Nc5ccn(C)n5)n4)n3)no2)C1=O` [Example 47, (R)-3-Hydroxy-1-methyl-3-(3-(6-(2-((1-methyl-1H-pyrazol-3-yl)amino)pyrimidin-4-yl)pyridin-2-yl)isoxazol-5-yl)pyrrolidin-2-one], the IC50 is under 50 nM.
As for `COc1nn(CCO)cc1Nc1nccc(-c2cccc(-c3cc([C@]4(O)CCN(C)C4=O)on3)n2)n1` [Example 48, (R)-3-Hydroxy-3-(3-(6-(2-((1-(2-hydroxyethyl)-3-methoxy-1H-pyrazol-4-yl)amino)pyrimidin-4-yl)pyridin-2-yl)isoxazol-5-yl)-1-methylpyrrolidin-2-one], the IC50 was under 50 nM.
Regarding `COc1nn(CC(C)(C)O)cc1Nc1nccc(-c2cccc(-c3cc([C@]4(O)CCN(C)C4=O)on3)n2)n1` [Example 49, (R)-3-Hydroxy-3-(3-(6-(2-((1-(2-hydroxy-2-methylpropyl)-3-methoxy-1H-pyrazol-4-yl)amino)pyrimidin-4-yl)pyridin-2-yl)isoxazol-5-yl)-1-methylpyrrolidin-2-one], the IC50 is under 50 nM.
Turning to `Cc1cn(C2CC(O)C2)nc1Nc1nccc(-c2cccc(-c3cc([C@]4(O)CCN(C)C4=O)on3)n2)n1` (stereo partly drawn) [Example 50, (R)-3-Hydroxy-3-(3-(6-(2-((1-(3-hydroxycyclobutyl)-4-methyl-1H-pyrazol-3-yl)amino)pyrimidin-4-yl)pyridin-2-yl)isoxazol-5-yl)-1-methylpyrrolidin-2-one], the IC50 was under 50 nM.
On to `CN1CC[C@@](O)(c2cc(-c3cccc(-c4ccnc(Nc5cnn(C)c5)n4)n3)no2)C1=O` [Example 52, (R)-3-Hydroxy-1-methyl-3-(3-(6-(2-((1-methyl-1H-pyrazol-4-yl)amino)pyrimidin-4-yl)pyridin-2-yl)isoxazol-5-yl)pyrrolidin-2-one], for which the IC50 was under 50 nM.
Consider `CN1CC[C@@](O)(c2cc(-c3cccc(-c4ccnc(Nc5cnn6ccccc56)n4)n3)no2)C1=O` [Example 53, (R)-3-Hydroxy-1-methyl-3-(3-(6-(2-(pyrazolo[1,5-a]pyridin-3-ylamino)pyrimidin-4-yl)pyridin-2-yl)isoxazol-5-yl)pyrrolidin-2-one], for which the IC50 is under 50 nM.
On to `CN1CC[C@@](O)(c2cc(-c3cccc(-c4ccnc(Nc5cn(C)nc5OCC(F)F)n4)n3)no2)C1=O` [Example 54, (R)-3-(3-(6-(2-((3-(2,2-Difluoroethoxy)-1-methyl-1H-pyrazol-4-yl)amino)pyrimidin-4-yl)pyridin-2-yl)isoxazol-5-yl)-3-hydroxy-1-methylpyrrolidin-2-one], for which the IC50 is under 50 nM.
`CCOc1nn(C)cc1Nc1nccc(-c2cccc(-c3cc([C@]4(O)CCN(C)C4=O)on3)n2)n1` [Example 55, (R)-3-(3-(6-(2-((3-Ethoxy-1-methyl-1H-pyrazol-4-yl)amino)pyrimidin-4-yl)pyridin-2-yl)isoxazol-5-yl)-3-hydroxy-1-methylpyrrolidin-2-one]: the IC50 is under 50 nM.
The result for `CN1CC[C@@](O)(c2cc(-c3cccc(-c4ccnc(Nc5cnn(CC(F)F)c5)n4)n3)no2)C1=O` [Example 56, (R)-3-(3-(6-(2-((1-(2,2-Difluoroethyl)-1H-pyrazol-4-yl)amino)pyrimidin-4-yl)pyridin-2-yl)isoxazol-5-yl)-3-hydroxy-1-methylpyrrolidin-2-one] reads under 50 nM; that for `Cc1nn(CC(F)F)cc1Nc1nccc(-c2cccc(-c3cc([C@]4(O)CCN(C)C4=O)on3)n2)n1` [Example 57, (R)-3-(3-(6-(2-((1-(2,2-Difluoroethyl)-3-methyl-1H-pyrazol-4-yl)amino)pyrimidin-4-yl)pyridin-2-yl)isoxazol-5-yl)-3-hydroxy-1-methylpyrrolidin-2-one], under 50 nM.
With `COc1nn(CC(F)F)cc1Nc1nccc(-c2cccc(-c3cc([C@]4(O)CCN(C)C4=O)on3)n2)n1` [Example 58, (R)-3-(3-(6-(2-((1-(2,2-Difluoroethyl)-3-methoxy-1H-pyrazol-4-yl)amino)pyrimidin-4-yl)pyridin-2-yl)isoxazol-5-yl)-3-hydroxy-1-methylpyrrolidin-2-one], the IC50 was under 50 nM.
For `CN1CC[C@@](O)(c2cc(-c3cccc(-c4ccnc(Nc5cn(C)nc5OCC(F)(F)F)n4)n3)no2)C1=O` [Example 59, (R)-3-Hydroxy-1-methyl-3-(3-(6-(2-((1-methyl-3-(2,2,2-trifluoroethoxy)-1H-pyrazol-4-yl)amino)pyrimidin-4-yl)pyridin-2-yl)isoxazol-5-yl)pyrrolidin-2-one], the IC50 is under 50 nM.
Regarding `CN1CC[C@@](O)(c2cc(-c3cccc(-c4ccnc(Nc5ccn(CCF)n5)n4)n3)no2)C1=O` [Example 60, (R)-3-(3-(6-(2-((1-(2-Fluoroethyl)-1H-pyrazol-3-yl)amino)pyrimidin-4-yl)pyridin-2-yl)isoxazol-5-yl)-3-hydroxy-1-methylpyrrolidin-2-one], the IC50 was under 50 nM.
For `CN1CC[C@@](O)(c2cc(-c3cccc(-c4ccnc(Nc5cnn(CCF)c5)n4)n3)no2)C1=O` [Example 61, (R)-3-(3-(6-(2-((1-(2-Fluoroethyl)-1H-pyrazol-4-yl)amino)pyrimidin-4-yl)pyridin-2-yl)isoxazol-5-yl)-3-hydroxy-1-methylpyrrolidin-2-one], the IC50 was under 50 nM.
Regarding `CN1CC[C@@](O)(c2cc(-c3cccc(-c4ccnc(Nc5cnn(CCN6CCOCC6)c5)n4)n3)no2)C1=O` [Example 62, (R)-3-Hydroxy-1-methyl-3-(3-(6-(2-((1-(2-morpholinoethyl)-1H-pyrazol-4-yl)amino)pyrimidin-4-yl)pyridin-2-yl)isoxazol-5-yl)pyrrolidin-2-one], the IC50 is under 50 nM.
As for `Cc1oncc1Nc1nccc(-c2cccc(-c3cc([C@]4(O)CCN(C)C4=O)on3)n2)n1` [Example 63, (R)-3-Hydroxy-1-methyl-3-(3-(6-(2-((5-methylisoxazol-4-yl)amino)pyrimidin-4-yl)pyridin-2-yl)isoxazol-5-yl)pyrrolidin-2-one], the IC50 is under 50 nM.
`CN1CC[C@@](O)(c2cc(-c3cccc(-c4ccnc(Nc5cnn(CC(C)(C)O)c5)n4)n3)no2)C1=O` [Example 64, (R)-3-Hydroxy-3-(3-(6-(2-((1-(2-hydroxy-2-methylpropyl)-1H-pyrazol-4-yl)amino)pyrimidin-4-yl)pyridin-2-yl)isoxazol-5-yl)-1-methylpyrrolidin-2-one]: the IC50 is under 50 nM.
With `CN1CC[C@@](O)(c2cc(-c3cccc(-c4ccnc(Nc5cn(C)nn5)n4)n3)no2)C1=O` [Example 65, (R)-3-Hydroxy-1-methyl-3-(3-(6-(2-((1-methyl-1H-1,2,3-triazol-4-yl)amino)pyrimidin-4-yl)pyridin-2-yl)isoxazol-5-yl)pyrrolidin-2-one], the IC50 lay in the range of 50 to 500 nM.
Turning to `CN1CC[C@@](O)(c2cc(-c3cccc(-c4ccnc(NC5COC5)n4)n3)no2)C1=O` [Example 66, (R)-3-Hydroxy-1-methyl-3-(3-(6-(2-(oxetan-3-ylamino)pyrimidin-4-yl)pyridin-2-yl)isoxazol-5-yl)pyrrolidin-2-one], the IC50 was in the range of 50 to 500 nM.
The result for `CN1CC[C@@](O)(c2cc(-c3cccc(-c4ccnc(NCCC(F)(F)F)n4)c3)no2)C1=O` [Example 71, (R)-3-Hydroxy-1-methyl-3-(3-(3-(2-((3,3,3-trifluoropropyl)amino)pyrimidin-4-yl)phenyl)isoxazol-5-yl)pyrrolidin-2-one] reads over 500 nM; that for `CN1CC[C@@](O)(c2cc(-c3cccc(-c4ccnc(Nc5cnn(C)c5)n4)c3)no2)C1=O` [Example 72, (R)-3-Hydroxy-1-methyl-3-(3-(3-(2-((1-methyl-1H-pyrazol-4-yl)amino)pyrimidin-4-yl)phenyl)isoxazol-5-yl)pyrrolidin-2-one], over 500 nM; that for `[2H]C([2H])([2H])n1cc(Nc2nccc(-c3cccc(-c4cc([C@]5(O)CCN(C)C5=O)on4)n3)n2)cn1` [Example 73, (R)-3-Hydroxy-1-methyl-3-(3-(6-(2-((1-(methyl-d3)-1H-pyrazol-4-yl)amino)pyrimidin-4-yl)pyridin-2-yl)isoxazol-5-yl)pyrrolidin-2-one], under 50 nM.
Then `[2H]C([2H])([2H])C([2H])([2H])n1cc(Nc2nccc(-c3cccc(-c4cc([C@]5(O)CCN(C)C5=O)on4)n3)n2)cn1` [Example 74, (R)-3-(3-(6-(2-((1-(Ethyl-d5)-1H-pyrazol-4-yl)amino)pyrimidin-4-yl)pyridin-2-yl)isoxazol-5-yl)-3-hydroxy-1-methylpyrrolidin-2-one], with under 50 nM; and `CN1CC[C@@](O)(c2cn(-c3cccc(-c4ccnc(Nc5ccn(C)n5)n4)n3)nn2)C1=O` [Example 75, (R)-3-Hydroxy-1-methyl-3-(1-(6-(2-((1-methyl-1H-pyrazol-3-yl)amino)pyrimidin-4-yl)pyridin-2-yl)-1H-1,2,3-triazol-4-yl)pyrrolidin-2-one], with under 50 nM.
Turning to `CN1CC[C@@](O)(c2cc(-c3cccc(-c4ccnc(Nc5cncc(F)c5)n4)n3)no2)C1=O` [Example 86, (R)-3-(3-(6-(2-((5-Fluoropyridin-3-yl)amino)pyrimidin-4-yl)pyridin-2-yl)isoxazol-5-yl)-3-hydroxy-1-methylpyrrolidin-2-one], the IC50 is under 50 nM.
For `CN1CC[C@@](O)(c2cc(-c3cccc(-c4ccnc(Nc5cnn(C6CCNC6)c5)n4)n3)no2)C1=O` (stereo partly drawn) [Example 90, (3R)-3-Hydroxy-1-methyl-3-(3-(6-(2-((1-(pyrrolidin-3-yl)-1H-pyrazol-4-yl)amino)pyrimidin-4-yl)pyridin-2-yl)isoxazol-5-yl)pyrrolidin-2-one], the IC50 was 50 to 500 nM.
